Experimental data published in ChEMBL document CHEMBL1149032, “Two new cytotoxic peroxide-containing acids from a New Guinea sponge, Callyspongia sp” (1994).
Converted amounts (≈) assume the structure as drawn.

Tested on: P388
Assay: Cytotoxicity against mouse P388 cells
Format: functional
Conditions: read-out: ED50 (the source's name)

## C/C=C1/C[C@](CC)(CCCC)OO[C@H]1CC(=O)O
  EC50: 5.5 µg/mL (≈ 21.5 µM)

## CCCCC1(CC)C[C@@H](CC)[C@H](CC(=O)O)OO1 (some centres not stated)
  EC50: 2.6 µg/mL (≈ 10.1 µM)
